# Reference: patent publication US20170239310A1, “Composition for Promoting Anti-Diabetic and Anti-Obesity Effects, Comprising Herbal Extract” (DONGGUK UNIVERSITY GYEONGJU CAMPUS INDUSTRY- ACADEMY …, priority 2014, published 2017)
# “Also recorded” adds a separate entry of the source.
# What was measured:
# [1] = test system: HepG2 cells; assay: Intracellular reactive oxygen species (ROS) activity, DHR123/FACS; assay type: cell-based; conditions: 6 hours, compared to normal group / metformin alone
# Description: After centrifugation at 1200 g for 5 minutes, a supernatant was discarded, and the remaining HepG2 cells were treated with 5 μg/ml of DHR123, followed by incubation at 37° C. for 30 minutes. After additional centrifugation for 5 minutes, PBS washing was performed two times and filtration was performed. Intracellular reactive oxygen species activity was measured based on the value of fluorescence intensity obtained from FACS analysis.
# [2] = test system: RAW 264.7 cells; assay: LPS-induced nitrogen monoxide (NO) generation, GRIESS reaction; assay type: cell-based; conditions: 1 μg/ml LPS, 24 hours, compared to LPS group / metformin alone
# Description: To compare an anti-inflammatory function, an in vitro model of LPS-induced nitrogen monoxide (NO) generation was used in an experiment, and NO measurement was carried out using a cell supernatant based on the GRIESS reaction (Green et al., 1982). RAW 264.7 cells were seeded at a density of 1.5×10^5 cells/ml and pre-treated with samples diluted at various concentrations, and after 1 hour, the pretreated cells were treated with 1 μg/ml of lipopolysaccharide (LPS: Sigma, St Louis, Mo., USA), followed by incubation for 24 hours. 50 μl of a cell culture supernatant and 50 μl of 1% (w/v) sulfanilamide, a GRIESS reagent, were added to each well of a 96-well plate, and the 96-well plate shaded from light was incubated at room temperature for 10 minutes and then 50 μl of 0.1% (w/v) N-1-naphthylethylenediamine dissolved in 2.5% (v/v) phosphoric acid was added to each well of the 96-well plate and mixed, followed by incubation under dark conditions for 10 minutes. Absorbance was read at 540 nm using a microplate reader (Molecular Devices, CA, USA) within 30 minutes after finishing incubation. NO production was calculated using a nitric oxide standard solution.
# [3] = test system: TNF-α; assay: TNF-α gene expression (real-time PCR) in RAW 264.7 cells; assay type: cell-based; conditions: normal group (N) 1.01
# Description: (§3) To identify the gene expression levels of XBP-1, TNF-α, and IL-6, real-time PCR was performed according to the same method as described in Example 3 except primers.
# [4] = in vivo; conditions: rat, po, 100 mg/kg
# [5] = test system: IL-6; assay: IL-6 gene expression (real-time PCR) in RAW 264.7 cells; conditions: normal group (N) 1.11
# Description: as §3
# [6] = test system: RIN-m5F insulinoma cells; assay: Insulin secretion assay (rat insulin ELISA); assay type: cell-based; conditions: […] metformin with extract, 20 mM glucose
# Description: A portion of cell culture supernatant was subjected to centrifugation at 4° C. for 10 minutes, and after centrifugation, a supernatant was collected and stored at −20° C. for further use. The amount of secreted insulin was measured using a rat insulin ELISA kit (Mercodia, Sweden), and an insulin secretion amount per gram of proteins was calculated by measuring the concentration of cellular proteins in each well.
# [7] = test system: 3T3-L1 cells; assay: Fat cell differentiation (Oil red O staining); assay type: cell-based; conditions: compared to control group / metformin alone
# Description: After seeding 3T3-L1 cells into a 6-well plate at a density of 5×10^5 cells/well, the cells were cultured until reaching full confluence. The pre-existing culture medium for the cells was exchanged with DMEM (differentiation media) containing 1 μM dexamethasone, 0.5 mM IBMX, and 10 μg/ml insulin, and the cells were cultured for 48 hours and then were treated with DMEM (maturation media) containing 10 μg/ml insulin to induce differentiation. Differentiation-induced fat cells produced as a result of the process were treated with samples at various concentrations or a positive control group, and inhibitory effects on fat cell differentiation were analyzed using an Oil red O staining method, TG, and a TC assay.
# [8] = test system: PPAR-α; assay: PPAR-α gene expression (real-time PCR) in RAW 264.7 cells; assay type: cell-based; conditions: normal group (N) 1.01
# Description: (§1) Total RNA was separated and purified using TRIsure (Bioline, USA) according to a protocol. 1 μg of total RNAs was subjected to a reverse transcription reaction using a cDNA synthesis kit (Sprint™RT Complete Oligo-(dT)18, Clontech, Mountain View, Calif., USA) according to a protocol for synthesizing first strand cDNA. The produced RT-PCR sample was subjected to real-time PCR reaction, in which the final reaction volume was adjusted to 20 μl and Light Cycler-Fast Start DNA Master SYBR Green (Roche Applied Science, Indianapolis, Ind., USA) and a Light Cycler instrument (Roche Applied Science) were used.
# (§2) PCR amplification was performed according to PCR steps, consisting of a pre-incubation step at 95° C. for 10 minutes and 35 (for beta-actin) or 45 (for C/EBPa) cycles of amplification (denaturation at 95° C. for 10 seconds, annealing at 52° C. for 10 seconds, and extension at 72° C. for 15 seconds). Total RNA was separated and purified using TRIsure (Bioline, USA) according to a protocol. 1 μg of total RNAs was subjected to a reverse transcription reaction using a cDNA synthesis kit (Sprint™RT Complete Oligo-(dT)18, Clontech, Mountain View, Calif., USA) according to a protocol for synthesizing first strand cDNA. […]
# [9] = test system: AMPK-α; assay: AMPK-α gene expression (real-time PCR) in RAW 264.7 cells; assay type: cell-based; conditions: normal group (N) 0.80
# Description: as §1, §2
# [10] = test system: OLETF/LETO rats; assay: Intraperitoneal insulin tolerance test (IPITT); assay type: in vivo, rat; conditions: metformin 100 mg/kg alone or with 200 mg/kg extract, insulin 1 U/kg IP
# Description: Dietary intakes, body weights, states, and the like were checked weekly, and at 24 weeks, an IPITT was performed using blood collected from the tail veins. After 12 weeks, the rats were sacrificed under anesthesia with an intraperitoneal (IP) injection of Zoletil/Rompun, and fat, each organ sample, and serum were separated. One week prior to the end of the experiments, OLETF/LETO rats were fasted for 15 hours and then administered with 1 U/kg of insulin by intraperitoneal (IP) injection, and then measurement of blood sugar levels was performed using an Accu-Chek blood glucose meter (Roche, USA) on blood samples, which had been collected from the tail vein of each individual by bleeding a small amount of blood at 0, 30, 60, 90, and 120 minutes. The obtained values for blood sugar levels were analyzed using an area under curve (AUC), and the like.
# [11] = test system: XBP-1; assay: XBP-1 gene expression (real-time PCR) in RAW 264.7 cells; assay type: cell-based; conditions: normal group (N) 1.00
# Description: as §3
# [12] = test system: L6 rat myoblast cells; assay: Glucose uptake assay (2-NBDG); assay type: cell-based; conditions: 2-NBDG 100 μg/ml; compared to control group / metformin alone
# Excerpt: Undifferentiated L6 rat myoblast cells were differentiated into myotube cells using 2% horse serum. […] When performing measurement, apigenin, a compound that inhibits glucose uptake, was used as a control.
# [13] = DPPH free radical scavenging activity; assay type: biochemical; conditions: 300 μM DPPH, 37° C., 30 minutes
# Description: 40 μl of a sample was mixed with 760 μl of 300 μM 2,2-diphenyl-1-picrylhydrazyl (DPPH) and the mixture was incubated at 37° C. for 30 minutes, and then the mixture was aliquoted to each well of a 96-well plate in triplicate and absorbance was measured at 515 nm using a microplate reader. BHT was used as a positive control group.
Structure (SMILES),intracellular ROS activity [1],production amount of nitrogen monoxide [2],gene expression level of TNF-α [3],CL renal ([4]; blood and urine),AUC(0-t) ([4]; blood),CL/F ([4]; blood),Cmax ([4]; blood),Tmax ([4]; blood),gene expression level of IL-6 [5],amount of insulin secretion [6],lipid formation attributed to differentiation of 3T3-L1 preadipocytes [7],gene expression level of PPAR-α [8],gene expression level of AMPK-α [9],"insulin resistance (IPITT, blood sugar AUC) [10]",gene expression level of XBP-1 [11],capacity of glucose uptake [12],DPPH free radical scavenging IC50 [13]
"CN(C)C(=N)N=C(N)N [Metformin, metformin]",tendency of decreasing intracellular reactive oxygen species (ROS) activity,production amount of nitrogen monoxide was decreased,1.34,40.3 ± 13.8 mL/min/kg,29000 ng·h/mL,54.3 ± 15.4 mL/min/kg,7650 ± 3100 ng/mL,1.5 h,1.91,significant changes in the amounts of insulin secretion were not observed,tendency of decreasing lipid formation,0.68,0.76,tendency to decrease; also recorded: tendency of decreasing,1.01,increased capacity of glucose uptake,
Cc1cc(C(C)(C)C)c(O)c(C(C)(C)C)c1 [BHT],,,,,,,,,,,,,,,,,113.85 µg/mL
